Values joined by “and” are separate entries in the source; they are usually repeats but may differ in a detail not shown here. Identical values can stand only once. Counter-ions that a name gives are not always drawn.
How the values were obtained:
mice brain AChE [1] = target: T1, mice brain AChE (Mus musculus, UniProt P21836); conditions: background statement; cited from earlier work
T1 construct: Mice brain homogenate prepared in saline was used as a source of AChE; from tissue; host or cells: mouse brain homogenate
T1 sequence (P21836 32-614): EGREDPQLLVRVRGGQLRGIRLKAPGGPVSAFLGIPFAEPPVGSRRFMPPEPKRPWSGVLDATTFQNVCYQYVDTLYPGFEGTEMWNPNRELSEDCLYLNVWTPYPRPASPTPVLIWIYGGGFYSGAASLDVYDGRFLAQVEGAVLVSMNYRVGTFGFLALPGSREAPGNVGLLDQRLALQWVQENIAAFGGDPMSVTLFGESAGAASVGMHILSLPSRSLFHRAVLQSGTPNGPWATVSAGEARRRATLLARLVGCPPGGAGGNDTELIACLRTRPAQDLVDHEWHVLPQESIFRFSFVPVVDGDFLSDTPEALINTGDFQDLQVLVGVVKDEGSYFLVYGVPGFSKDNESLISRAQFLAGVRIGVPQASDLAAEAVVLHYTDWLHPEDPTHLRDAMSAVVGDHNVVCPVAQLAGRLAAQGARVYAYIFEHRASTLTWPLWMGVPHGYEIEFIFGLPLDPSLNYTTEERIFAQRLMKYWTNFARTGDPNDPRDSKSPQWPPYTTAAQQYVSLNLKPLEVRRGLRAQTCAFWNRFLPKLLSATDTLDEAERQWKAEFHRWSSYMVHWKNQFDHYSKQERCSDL

mice serum BChE = target: T2, mice serum BChE (Mus musculus, UniProt Q03311); experiment: BChE inhibition, Ellman spectrophotometric assay, mice serum; type: biochemical; conditions: for IC50: mean ± SEM, at least three measures, butyrylthiocholine iodide substrate
T2 construct: mice serum was the source of BChE; from tissue; host or cells: mouse serum
T2 sequence (Q03311 30-603): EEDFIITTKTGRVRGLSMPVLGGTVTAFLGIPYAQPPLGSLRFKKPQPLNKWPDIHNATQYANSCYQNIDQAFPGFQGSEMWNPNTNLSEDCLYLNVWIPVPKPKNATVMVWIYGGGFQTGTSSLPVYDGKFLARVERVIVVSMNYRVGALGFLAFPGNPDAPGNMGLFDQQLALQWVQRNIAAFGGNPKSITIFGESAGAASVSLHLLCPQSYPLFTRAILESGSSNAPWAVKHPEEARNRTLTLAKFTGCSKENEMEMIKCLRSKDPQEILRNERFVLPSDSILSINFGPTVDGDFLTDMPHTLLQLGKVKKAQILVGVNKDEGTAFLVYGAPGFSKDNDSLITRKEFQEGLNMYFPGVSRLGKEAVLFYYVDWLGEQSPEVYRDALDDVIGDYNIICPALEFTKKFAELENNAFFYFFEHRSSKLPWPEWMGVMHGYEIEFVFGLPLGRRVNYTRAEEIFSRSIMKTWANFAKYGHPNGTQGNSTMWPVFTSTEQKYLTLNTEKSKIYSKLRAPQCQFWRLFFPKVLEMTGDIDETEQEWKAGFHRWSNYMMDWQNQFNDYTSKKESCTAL
Protocol: (§1) AChE inhibiting activities were measured by a spectrophotometric assay developed by Ellman et al. It was based on the fact that AChE catalyzes the hydrolysis of acetylcholine, releasing choline and acetic acid. In this assay, acetylthiocholine (AChSC) is hydrolyzed by the enzyme, releasing thiocholine containing a sulfhydrylic group able to react with color indicating reagent. Yellowish products were measured spectrophotometrically, the amount of which reflects the activity of AChE. All the procedures were operated according to the instruction of the AChE reagent kit produced by Nanjing Jiancheng Bio-engineering Institute. Mice brain homogenate prepared in saline was used as a source of AChE; mice serum was the source of BChE.
The AChE activity was determined in a reaction mixture containing 200 μL of a solution of AChE (0.415 U/mL in 0.1 M phosphate buffer, pH 8.0), 300 μL of a solution of 5,5′-dithio-bis(2-nitrobenzoic) acid (3.3 mM DTNB in 0.1 M phosphate buffered solution, pH 7.0, containing NaHCO3 6 mM), and 30 μL of a solution of the inhibitor (six to seven concentrations). After incubation for 20 min at 37° C., acetylthiocholine iodide (300 μL of 0.05 mM water solution) was added as the substrate, and AChE activity was determined by UV spectrophotometry from the absorbance changes at […] for 3 min at 25° C. […] BChE inhibitory activity determinations were similarly carried out using butyrylthiocholine iodide (0.05 mM) as the substrate. Results are reported as the means ±SEM of IC50 obtained from at least three independent measures.

mice brain AChE [2] = target: T1, mice brain AChE; experiment: AChE inhibition, Ellman spectrophotometric assay, mice brain homogenate; type: biochemical; conditions: for IC50: mean ± SEM, at least three measures, hydrochlorides, 20 min preincubation at 37° C.; for AChE selectivity: mice serum BChE versus mice brain AChE IC50
Protocol: as §1
After incubation for 20 min at 37° C., acetylthiocholine iodide (300 μL of 0.05 mM water solution) was added as the substrate, and AChE activity was determined by UV spectrophotometry from the absorbance changes at […] for 3 min at 25° C. […] BChE inhibitory activity determinations were similarly carried out using butyrylthiocholine iodide (0.05 mM) as the substrate. Results are reported as the means ±SEM of IC50 obtained from at least three independent measures.

[3] = target: T3, AChE-induced Aβ (1-40) aggregation (human recombinant AChE) (Homo sapiens, UniProt P22303); experiment: Inhibition of AChE-induced Aβ aggregation, thioflavin T fluorescence; type: biochemical; conditions: for inhibition at 100 µM: inhibitor 100 μM, read-out: Inhibition (%) 100 μM ± SEM; for inhibition at 400 µM: read-out: Inhibition (%) 400 μM ± SEM; for IC50: extrapolated from inhibition curves, read-out: IC50 ± SEM, AChE-induced Aβ aggregation; for inhibition of AChE-induced Aβ aggregation, factor compared with propidium: relative to propidium
T3 construct: purchased Sigma-Aldrich
T3 sequence (P22303 32-614): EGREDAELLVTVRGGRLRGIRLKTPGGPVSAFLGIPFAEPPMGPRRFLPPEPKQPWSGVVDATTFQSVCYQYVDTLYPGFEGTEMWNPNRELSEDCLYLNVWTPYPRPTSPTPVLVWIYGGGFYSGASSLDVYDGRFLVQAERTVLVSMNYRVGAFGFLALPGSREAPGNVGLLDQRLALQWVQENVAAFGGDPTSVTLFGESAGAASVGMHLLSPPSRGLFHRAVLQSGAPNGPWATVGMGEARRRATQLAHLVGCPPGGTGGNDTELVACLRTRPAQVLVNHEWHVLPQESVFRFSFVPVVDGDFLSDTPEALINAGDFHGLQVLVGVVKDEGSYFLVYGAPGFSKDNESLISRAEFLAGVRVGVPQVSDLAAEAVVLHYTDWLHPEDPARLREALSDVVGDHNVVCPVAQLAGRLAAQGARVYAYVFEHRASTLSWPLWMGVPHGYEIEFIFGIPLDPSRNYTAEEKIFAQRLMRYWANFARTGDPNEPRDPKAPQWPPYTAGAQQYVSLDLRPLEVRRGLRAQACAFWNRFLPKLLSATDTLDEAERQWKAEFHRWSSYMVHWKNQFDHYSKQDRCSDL
Protocol: Aliquots of 2 μL Aβ (1-40) peptide (Biosource), lyophilized from 2 mg/mL HFIP solution and dissolved in DMSO, were incubated for 48 h at room temperature in 0.215 M sodium phosphate buffer (pH 8.0) at a concentration of 230 μM. For coincubation experiments, aliquots (16 μL) of human recombinant AChE (Sigma-Aldrich) (final concentration of 2.3 μM) and AChE in the presence of 2 μL of the tested inhibitors were added. Each assay was run in duplicate. To quantify amyloid fibril formation, the thioflavin T fluorescence method was then applied.
Fluorescence was monitored with excitation at 446 nm and emission at 490 nm. The percent inhibition of the AChE-induced aggregation due to the presence of increasing concentrations of the inhibitor was calculated by the following expression: 100−(IFi/IFo×100), where IFi and IFo were the fluorescence intensities obtained for Aβ plus AChE in the presence and in the absence of inhibitor, respectively, after subtracting the fluorescence of respective blanks. Inhibition curves and linear regression parameters were obtained for each compound, and the IC50 was extrapolated.

[4] = inhibitor 400 μM, Aβ 230 μM, AChE 2.3 μM, 48 h
[5] = relative to (−)-MEP (hydrochloride)

Compound	IC50 (mice serum BChE)	IC50 (mice brain AChE [2])	AChE selectivity (mice brain AChE [2])	inhibition at 100 µM ([3]; Aβ 230 μM, AChE 2.3 μM, 48 h)	inhibition at 400 µM [3, 4]	other results
CCC1(c2cccc(O)c2)CCCCN(C)C1 (single isomer, unassigned; (-)) [(−)-meptazinol]	15000 ± 4000 nM	41000 ± 14000 nM	0.37	–	–	mice brain AChE inhibition test, result in words (mice brain AChE [1]): potent AChE inhibitor; Inhibition (%) 400 μM ± SEM [3, 4]: 0%
CC[C@@]1(c2cccc(O)c2)CCCCN(CCN2CCCC[C@@](CC)(c3cccc(O)c3)C2)C1 [(A = CH2, n = 2)]	125 ± 9 nM	43000 ± 20000 nM	0.0029	–	–	–
CC[C@@]1(c2cccc(O)c2)CCCCN(CCCN2CCCC[C@@](CC)(c3cccc(O)c3)C2)C1 [(A = CH2, n = 3)]	132 ± 51 nM	42000 ± 14000 nM	0.0031	–	–	–
CC[C@@]1(c2cccc(O)c2)CCCCN(CCCCN2CCCC[C@@](CC)(c3cccc(O)c3)C2)C1 [(A = CH2, n = 4), N,N′-(1′,4′-Butylene)-bis-(−)-nor-MEP Hydrochloride]	104 ± 29 nM	21400 ± 7600 nM	0.0049	–	–	–
CC[C@@]1(c2cccc(O)c2)CCCCN(CCCCCN2CCCC[C@@](CC)(c3cccc(O)c3)C2)C1 [(A = CH2, n = 5)]	192 ± 41 nM	4000 ± 1000 nM	0.048	–	–	–
CC[C@@]1(c2cccc(O)c2)CCCCN(CCCCCCN2CCCC[C@@](CC)(c3cccc(O)c3)C2)C1 [(A = CH2, n = 6)]	119 ± 20 nM	1220 ± 20 nM	0.098	–	–	–
CC[C@@]1(c2cccc(O)c2)CCCCN(CCCCCCCN2CCCC[C@@](CC)(c3cccc(O)c3)C2)C1 [(A = CH2, n = 7)]	102 ± 19 nM	270 ± 70 nM	0.38	–	–	–
CC[C@@]1(c2cccc(O)c2)CCCCN(CCCCCCCCN2CCCC[C@@](CC)(c3cccc(O)c3)C2)C1 [(A = CH2, n = 8)]	63 ± 8 nM	79 ± 19 nM	0.80	0%	0.15 ± 0.2%	–
CC[C@@]1(c2cccc(O)c2)CCCCN(CCCCCCCCCN2CCCC[C@@](CC)(c3cccc(O)c3)C2)C1 [(A = CH2, n = 9), N,N′-(1′,9′-Nonylene)-bis-(−)-nor-MEP Hydrochloride]	10 nM	3.9 nM	2.6	74.4 ± 4.3%	91.7 ± 3.6%	BChE inhibition, times more potent than (−)-MEP (mice serum BChE; [5]): 1500 times; BChE inhibition, times more potent than rivastigmine (mice serum BChE; relative to rivastigmine): 150 times; selectivity for AChE, times that of (−)-MEP (mice brain AChE [2]; relative to (−)-MEP): 7 times; fold increase in inhibiting mice brain AChE compared with (−)-MEP (mice brain AChE [2]; [5]): 10000 fold; fold increase in inhibiting mice brain AChE compared with rivastigmine (mice brain AChE [2]; relative to rivastigmine): 1400 fold; selectivity for AChE, times that of rivastigmine (mice brain AChE [2]; relative to rivastigmine): 9 times; IC50 [3]: 79000 nM and 79400 nM; inhibition of AChE-induced Aβ aggregation, factor compared with propidium [3]: ~2 times
CC[C@@]1(c2cccc(O)c2)CCCCN(CCCCCCCCCCN2CCCC[C@@](CC)(c3cccc(O)c3)C2)C1 [(A = CH2, n = 10)]	17 ± 6 nM	9.5 ± 4.5 nM	1.8	66.6 ± 1.7%	81.8 ± 1.2%	IC50 [3]: 83000 nM and 83400 nM; inhibition of AChE-induced Aβ aggregation, factor compared with propidium [3]: ~2 times
CC[C@@]1(c2cccc(O)c2)CCCCN(CCCCCCCCCCCN2CCCC[C@@](CC)(c3cccc(O)c3)C2)C1 [(A = CH2, n = 11)]	74 ± 11 nM	24 ± 8 nM	3.1	–	–	–
CC[C@@]1(c2cccc(O)c2)CCCCN(CCCCCCCCCCCCN2CCCC[C@@](CC)(c3cccc(O)c3)C2)C1 [(A = CH2, n = 12)]	100 ± 55 nM	42 ± 20 nM	2.4	–	–	–
CC[N+](C)(CC)CCC[n+]1c(-c2ccccc2)c2cc(N)ccc2c2ccc(N)cc21 [Propidium iodine, reference compound]	–	–	–	16.7 ± 4.4%	79.2 ± 5.9%	–

Reference: patent US8232270B2, “Bivalent (−)-meptazinol compounds and/or their salts, and their preparation and futilization” (priority 2006, dated 2012)
